The values that follow are results of earlier work, collected in article PMC12840679, “Rational Design, Synthesis and Pharmacological Evaluation of Chalcones as Dual-Acting Compounds—Histamine H3 Receptor Ligands and MAO-B Inhibitors” (International Journal of Molecular Sciences, 2026).

This series has as its target hH3R (Homo sapiens, UniProt Q9Y5N1). The following applies: HEK293 cells.

SMILES strings stand for the structures.

Chain of hH3R (Q9Y5N1 whole entry): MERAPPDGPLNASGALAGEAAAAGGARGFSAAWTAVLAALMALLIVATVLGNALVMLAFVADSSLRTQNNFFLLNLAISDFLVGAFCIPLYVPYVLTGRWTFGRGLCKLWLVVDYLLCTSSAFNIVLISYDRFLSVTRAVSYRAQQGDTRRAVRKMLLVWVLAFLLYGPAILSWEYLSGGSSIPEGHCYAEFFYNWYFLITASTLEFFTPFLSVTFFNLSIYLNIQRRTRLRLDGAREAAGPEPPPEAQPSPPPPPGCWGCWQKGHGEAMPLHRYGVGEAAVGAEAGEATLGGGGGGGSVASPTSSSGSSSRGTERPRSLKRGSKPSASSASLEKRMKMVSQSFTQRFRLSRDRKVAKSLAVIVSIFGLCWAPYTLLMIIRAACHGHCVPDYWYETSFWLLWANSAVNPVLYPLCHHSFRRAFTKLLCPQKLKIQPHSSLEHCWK

For `CC(C)(C)c1ccc(OCCCN2CCCCC2)cc1` [DL76], the Ki is 58 nM.

The term Ki denotes a measure of affinity in units of concentration, obtained from inhibition or displacement.
